Where two headings read alike, the source gives them in different places.

For one series, the system named is Stat3. The note with it: SLC29A2 ectopically expressing cells, FIG. 5D; for SLC29A2-induced Stat3 phosphorylation: 6B.
A further series has as its system SK-hep1 cells. Nature of the series: Cell viability assay (ALAMAR BLUE), SK-hep1 cells with or without ectopic SLC29A2. Type of series: cell-based. The protocol: HCC cell lines (Sk-hep1 and Mahlavu) were maintained in Dulbecco's modified Eagle's medium (DMEM) with 10% fetal bovine serum, 1% non-essential amino acid, 1% L-glutamine, and 1% penicillin/streptomycin. All cells were tested for mycoplasma contamination.
pcDNA3.0/HA˜SLC29A2 was generated according to Chen et al. (2010) (Hepatologs, 52(5), 1690-1701), To stably express SLC29A2 or STAT3D, HCC cell lines were transfected with the plasmid according to the instruction manual by JetPrime transfection reagent (Polyplus), and further selected in the presence of G418 (SK-hep1: 800 μg/mL, Mahlavu: 500 μg/mL)
(Alamar Blue is a resazurin reagent that responds to reducing activity.)

For a further series, the system named is SLC29A2. Nature of the series: Confocal microscopy of nuclear translocation. Type of series: cell-based. The note with it: FIG. 5E. As to the method: Cells were grown on glass slides. After washing with ice-cold PBS, cells were fixed with methanol, blocked with 5% BSA, and incubated with primary antibodies at 4° C. overnight. The slides were washed with PBS, and incubated with Alexa488 or AIexa594-conjugated secondary antibodies. The slides were then washed with PBS, stained with DAPI and mounted with Dako fluorescent mounting medium (#S3025, Dako). The immunostained cells were acquired by Zeiss LSM 700 laser-scanning microscope with 63X/1.4 objective. The images were analyzed with ZEN, AxioVision, and imagesJ software.

A further series has as its system SLC29A2-expressing cells. Briefly: Trans-well (Boyden chamber) migration assay. The format is cell-based. The following applies: SLC29A2 ectopically expressing cells; FIG. 5C. As to the method: A total of 1×10^4 cells were seeded in the upper chamber of 8 micron Boyden chamber insert (#MCEP24H48, Millipore) containing a serum-free medium. The inserts were then hanged on the 24-well plate containing a complete medium. After 16 hours, the non-migrated cells were wiped out and the migrated cells were fixed with methanol and stained with Liu's stain. The migrated cells were counted by ImageJ software.

A further series deals with HCC cell lines. The following applies: HCC cell lines carrying amplified SLC29A2 vs non-amplified cells; FIG. 5A.
Series [1] deals with luciferase-carrying SK-hep1 cells. As to the method: All animal procedures were conducted under the approval of the institutional animal care and user committee of Academia Sinica. […] The luciferase activities were detected by the IVIS Image system every two weeks, and the images were analyzed with IVIS operating software.
The mice wore sacrificed 48 weeks after the tumor injection or before the tumors grew larger than allowed. The tumor samples were collected and fixed with 4% paraformaldehyde.

In the next series the test system is late-stage HCC. The note with it: cited from earlier work.

Experimental for HCC cell lines: The cell proliferation and cell viability were detected by […] BLUE® reagent (DAL1100, Thermo Fisher) according to the manufacturer's instruction. […] BLUE® for incubation at 37° C. for 1 hour. The ALAMAR BLUB® fluorescence was excited at 560 nm and measured at 590 nm.

Regarding `OCCN(CCO)c1nc(N2CCCCC2)c2nc(N(CCO)CCO)nc(N3CCCCC3)c2n1` [dipyridamole], in the series with Stat3, the “cyclin D1 down-regulation” value is “down-regulation of cyclin D1 was reversed” and the “SLC29A2-induced Stat3 phosphorylation” value is recorded as “inhibits the SLC29A2-induced Stat3 phosphorylation”. Besides, the “SLC29A2-induced Stat3 phosphorylation” value in the series on Stat3 (listed as SLC29A2 inhibitor) is listed as “decreased SLC29A2-induced Stat3 phosphorylation in a dosage-dependent manner”. In addition, the “sensitivity of cells to dipyridamole (cell viability)” value in the series with SK-hep1 cells (SK-hep1 cells expressing SLC29A2 vs control cells, FIG. 5B) is recorded as “sensitive to dipyridamole than control cells”. For the same molecule, in the series with SLC29A2, the Stat3 nuclear translocation result was “decreased SLC29A2 and Stat3 nuclear translocation”; the “nuclear translocation of SLC29A2” value was “reduces the nuclear translocation of SLC29A2”. The trans-well migration entry with SLC29A2-expressing cells was “reduced trans-well migration of SLC29A2-expressing cells”. In the series with HCC cell lines, the “sensitivity of cells to dipyridamole (cell viability, IC50)” value is listed as “sensitive to dipyridamole compared to non-amplified cells”.

For the molecule `CNC(=O)c1cc(Oc2ccc(NC(=O)Nc3ccc(Cl)c(C(F)(F)F)c3)cc2)ccn1` [sorafenib], in series [1] (mouse, in vivo), the “body weight changes and toxicity to mice” value was “no significant body weight changes and toxicity”. For the same molecule, the “tumor burden (IVIS)” value in series [1] (oral gavage once a day, sorafenib 10 mg/kg/day, dipyridamole 25 mg/kg/day, 6 weeks after treatment, FIG. 6D) is “reduced the tumor burden in both SLC29A2-expressing and control groups”. Also, in the series with late-stage HCC (late-stage HCC patients who received sorafenib), the “prolongation of overall survival” value is listed as 3˜6 months. For the same molecule, the side effects result in the series on late-stage HCC (patients who received sorafenib) is “severe side effects”. Moreover, the “resistance of cells to sorafenib (cell viability)” value in the series with SK-hep1 cells (SLC29A2 expressing cells vs control cells, FIG. 6A) is reported as “much more resistant to sorafenib as compared to the control cells”.

The record behind these values is US10912777B2 (Academia Sinica, priority 2016, dated 2021).
